Patent US20230233600A1, “IMPROVED VIRUCIDAL FORMULATIONS” (priority 2020, published 2023)
Read-outs that look alike come from different tables or passages of the source.

Tested on: SARS-CoV-2
Type: cell-based
Settings: for LRV (log reduction value), reduction of virus compared to the virus control / Virus Titer: solution at 90%
[1] = incubation 15 seconds at 37° C.
[2] = incubation 15 minutes at 37° C.

## CCO [Ethanol]
[1]
  LRV (log reduction value), reduction of virus compared to the virus control: 4.3
  Virus Titer: 0.67 Log10 CCID50 of virus per mL
Incubation 5 minutes at 37° C.
  LRV (log reduction value), reduction of virus compared to the virus control: >4.3
  Virus Titer: <0.67 Log10 CCID50 of virus per mL
[2]
  LRV (log reduction value), reduction of virus compared to the virus control: >4.3
  Virus Titer: <0.67 Log10 CCID50 of virus per mL
Positive control, contact time not given
  virus titer (baseline reached): 0.67 log10 CCID50/ml
